# Measured values from patent US20260344670A1, “BIXLOZONE MIXTURES WITH PETHOXAMID” (FMC CORPORATION, priority 2022, published 2026).
# Legend:
# Format in all cases: in vivo
# [1] = system: weeds; assay: Example 4: pre-emergence weed control on corn at relatively medium application rates of pethoxamid (Table 12); details: 800 g/ha pethoxamid
# Experimental: (§1) The herbicidal compounds bixlozone and pethoxamid were applied in a variety of forms and at a variety of amounts, application rates, and normalities. Efficacy of the herbicidal compositions was evaluated with reference to a scale of 0% to 100% in comparison with untreated control plots. 0 means no damage to the harmful plants and 100 means complete destruction of the harmful plants. Plants per square meter is indicated by “pl/m^2”, and grams per hectare is indicated by “g/ha”. The acronym “EC” means emulsifiable concentrate (a liquid, homogenous formulation to be applied as an emulsion after dilution with water); “SC” means suspension concentrate (a stable suspension of active ingredient(s) with water as the fluid); “ZC” refers to a mixed formulation of CS and SC (a stable suspension of capsules and active ingredient(s) in a fluid, normally intended for dilution with water before use).
# Various forms, compositions, and mixtures of bixlozone and pethoxamid were applied to corn before emergence. […] Mixtures of bixlozone with 800 g/ha pethoxamid improved weed spectrum on a range of broad leaf weeds (e.g., CHEAL and ABUTH) and grasses (e.g., ECHCG, DIGSA, and SETVI). Combinations of bixlozone and pethoxamid in pre-emergence applications were very safe with no clear pethoxamid rate effect.
# [2] = system: weeds; assay: Example 5: pre-emergence weed control on corn at relatively low application rates of pethoxamid (Table 13); details: 300 g/ha pethoxamid
# Experimental: as §1
# Various forms, compositions, and mixtures of bixlozone and pethoxamid were applied to corn before emergence. […] Mixtures of bixlozone with 300 g/ha pethoxamid improved weed spectrum on a range of broad leaf weeds (e.g., SOLNI and ABUTH). Combinations of bixlozone and pethoxamid in pre-emergence applications were very safe with no clear pethoxamid rate effect.
# [3] = system: weeds; assay: Example 3: pre-emergence weed control on corn at relatively high application rates of pethoxamid (Tables 8-11); details: 1200 g/ha pethoxamid
# From the text: [formula] • where ppm=milligrams of active ingredient (=a.i.) per liter of spray mixture X=% action by component A using p ppm of active ingredient Y=% action by component B using q ppm of active ingredient. If the ratio R defined as the action actually observed (O) divided by the expected action (E) is >1 then the action of the combination is superadditive, i.e. there is a synergistic effect. For a more detailed description of the Colby formula, see Colby, S. R. “Calculating Synergistic and Antagonistic Responses of Herbicide Combination”, Weeds, Vol. 15, pages 20-22; 1967; see also Limpel et al., Proc. NEWCC 16:48-53 (1962).
# As used herein, rating timings correspond to the following: A1=weed assessment at BBCH 11-12; A2=4 weeks after the application; A3=when ZEAMX crop reaches BBCH 18 (row closure); and A4=BBCH 51-59 of the ZEAMX crop.
# The herbicidal compounds bixlozone and pethoxamid were applied in a variety of forms and at a variety of amounts, application rates, and normalities. Efficacy of the herbicidal compositions was evaluated with reference to a scale of 0% to 100% in comparison with untreated control plots. 0 means no damage to the harmful plants and 100 means complete destruction of the harmful plants. Plants per square meter is indicated by “pl/m^2”, and grams per hectare is indicated by “g/ha”. […]
structure (smiles),measurement,setting,value
CC1(C)CON(Cc2ccc(Cl)cc2Cl)C1=O [bixlozone],efficacy (in words),[1],"minimal differences in performance between SC and CS were observed, except on CHEAL and ABUTH"
same,efficacy (in words),[2],"minimal differences in performance between SC and CS were observed, except on POLSS, SOLNI, ABUTH, and ECHCG"
same,efficacy (in words),[3],"minimal differences in performance between SC and CS were observed, except on CHEAL and ECHCG"
